Data as given in article PMC12722308, “A phase 1 study of orally administered 5-fluoro-2’-deoxycytidine with tetrahydrouridine in patients with refractory solid tumors” (Cancer Chemotherapy and Pharmacology, 2025).
Marks after values point to notes of the source that are not given here.

How the values were obtained:
[1] = Urinary excretion by LC-MS/MS; assay type: in vivo, human
Experimental: (§1) Blood specimens for PK analysis were collected on Cycle 1 Day 1 (C1D1) prior to THU administration and then at 15, 30, and 45 min and 1, 2, 3, 4, 5, and 6 h after THU administration, as well as on C1D2 and C1D3 prior to and 2 h after THU administration. Urine specimens for PK analysis were collected on C1D1 prior to treatment and then at every void from 0 to 24 h after THU administration. All specimens for PK analysis were processed and analyzed by LC-MS/MS as described previously, and Phoenix WinNonlin software was used for data analysis.

[2] = Plasma pharmacokinetics by LC-MS/MS; assay type: in vivo, human
Experimental: as §1

[3] = All FdCyd doses + THU 3000 mg oral (n=44), geom. mean (geom. SD)
[4] = All FdCyd doses + THU 6000 mg oral (n=11), geom. mean (geom. SD)
[5] = DL1: FdCyd 30 mg + THU 3000 mg oral (n=3), geom. mean (geom. SD)
[6] = DL1: FdCyd 30 mg + THU 3000 mg oral (n=3), no SD given
[7] = DL2: FdCyd 60 mg + THU 3000 mg oral (n=4), geom. mean (geom. SD)
[8] = DL3: FdCyd 90 mg + THU 3000 mg oral (n=3), geom. mean (geom. SD)
[9] = DL4: FdCyd 120 mg + THU 3000 mg oral (n=3), geom. mean (geom. SD)
[10] = DL5-9: FdCyd 160 mg + THU 3000 mg oral (n=31), geom. mean (geom. SD)
[11] = DL10: FdCyd 60 mg + THU 6000 mg oral (n=8), geom. mean (geom. SD)
[12] = DL11: FdCyd 80 mg + THU 6000 mg oral (n=3), geom. mean (geom. SD)
[13] = Total, all dose levels (n=55), geom. mean (geom. SD)
[14] = DL2: FdCyd 60 mg + THU 3000 mg oral, FU n=3, geom. mean (geom. SD)
[15] = DL3: FdCyd 90 mg + THU 3000 mg oral, FU n=3, geom. mean (geom. SD)
[16] = DL4: FdCyd 120 mg + THU 3000 mg oral, FU n=2, geom. mean (geom. SD)
[17] = DL5-9: FdCyd 160 mg + THU 3000 mg oral, FU n=29, geom. mean (geom. SD)
[18] = DL10: FdCyd 60 mg + THU 6000 mg oral, FU n=8, geom. mean (geom. SD)
[19] = DL11: FdCyd 80 mg + THU 6000 mg oral, FU n=3, geom. mean (geom. SD)

Compound: O=c1[nH]c(=O)n([C@H]2C[C@H](O)[C@@H](CO)O2)cc1F [FdUrd]
- FdUrd urinary excretion over 0-24 hours of day 1 ([1]; All FdCyd doses + THU 3000 mg, N=5, geom. mean (geom. SD)): 0.053 (1.3) % dose
- FdUrd urinary excretion over 0-24 hours of day 1 ([1]; All FdCyd doses + THU 6000 mg, N=3, geom. mean (geom. SD)): 0.10 (2.6) % dose
- FdUrd urinary excretion over 0-24 hours of day 1 ([1]; DL4: FdCyd 120 mg + THU 3000 mg, N=2, geom. mean (geom. SD)): 0.064 (1.0) % dose
- FdUrd urinary excretion over 0-24 hours of day 1 ([1]; DL5-9: FdCyd 160 mg + THU 3000 mg, N=3, geom. mean (geom. SD)): 0.047 (1.3) % dose
- FdUrd urinary excretion over 0-24 hours of day 1 ([1]; DL10: FdCyd 60 mg + THU 6000 mg, N=2, geom. mean (geom. SD)): 0.14 (2.6) % dose
- FdUrd urinary excretion over 0-24 hours of day 1 ([1]; DL11: FdCyd 80 mg + THU 6000 mg, N=1): 0.045 (-) % dose
- FdUrd AUC/Dose [2, 3]: 0.55 (1.6)^d µg/L•h/mg
- FdUrd Cmax/Dose [2, 3]: 0.19 (1.6)^c µg/L / mg
- FdUrd t½ [2, 3]: 1.3 (1.9) h
- FdUrd/FdCyd metabolic ratio, AUC0-inf [2, 3]: 0.068 (2.1)^f
- FdUrd/FdCyd metabolic ratio, Cmax [2, 3]: 0.048 (2.0)^e
- FdUrd AUC/Dose [2, 4]: 0.80 (1.6)^d µg/L•h/mg
- FdUrd Cmax/Dose [2, 4]: 0.34 (1.5)^c µg/L / mg
- FdUrd t½ [2, 4]: 1.2 (1.6) h
- FdUrd/FdCyd metabolic ratio, AUC0-inf [2, 4]: 0.067 (1.4)^f
- FdUrd/FdCyd metabolic ratio, Cmax [2, 4]: 0.051 (1.9)^e
- FdUrd Cmax [2, 5]: 0.012 (1.4) mg/L
- FdUrd Cmax/Dose [2, 5]: 0.41 (1.4) µg/L / mg
- FdUrd/FdCyd metabolic ratio, Cmax [2, 5]: 0.099 (1.6)
- FdUrd AUC0-inf [2, 6]: 0.047 (-) mg/L•h
- FdUrd AUC/Dose [2, 6]: 1.58 (-) µg/L•h/mg
- FdUrd t½ [2, 6]: 3.3 (-) h
- FdUrd/FdCyd metabolic ratio, AUC0-inf [2, 6]: 0.069 (-)
- FdUrd AUC0-inf [2, 7]: 0.044 (1.72) mg/L•h
- FdUrd AUC/Dose [2, 7]: 0.73 (1.7) µg/L•h/mg
- FdUrd Cmax [2, 7]: 0.011 (1.7) mg/L
- FdUrd Cmax/Dose [2, 7]: 0.19 (1.7) µg/L / mg
- FdUrd t½ [2, 7]: 1.8 (3.4) h
- FdUrd/FdCyd metabolic ratio, AUC0-inf [2, 7]: 0.070 (3.5)
- FdUrd/FdCyd metabolic ratio, Cmax [2, 7]: 0.039 (2.3)
- FdUrd AUC0-inf [2, 8]: 0.043 (1.20) mg/L•h
- FdUrd AUC/Dose [2, 8]: 0.48 (1.2) µg/L•h/mg
- FdUrd Cmax [2, 8]: 0.015 (1.2) mg/L
- FdUrd Cmax/Dose [2, 8]: 0.16 (1.2) µg/L / mg
- FdUrd t½ [2, 8]: 1.1 (1.3) h
- FdUrd/FdCyd metabolic ratio, AUC0-inf [2, 8]: 0.041 (1.7)
- FdUrd/FdCyd metabolic ratio, Cmax [2, 8]: 0.028 (1.7)
- FdUrd AUC0-inf [2, 9]: 0.054 (1.97) mg/L•h
- FdUrd AUC/Dose [2, 9]: 0.45 (2.0) µg/L•h/mg
- FdUrd Cmax [2, 9]: 0.016 (1.6) mg/L
- FdUrd Cmax/Dose [2, 9]: 0.14 (1.6) µg/L / mg
- FdUrd t½ [2, 9]: 1.7 (1.2) h
- FdUrd/FdCyd metabolic ratio, AUC0-inf [2, 9]: 0.034 (1.3)
- FdUrd/FdCyd metabolic ratio, Cmax [2, 9]: 0.018 (1.3)
- FdUrd AUC0-inf [2, 10]: 0.084 (1.55) mg/L•h
- FdUrd AUC/Dose [2, 10]: 0.53 (1.6) µg/L•h/mg
- FdUrd Cmax [2, 10]: 0.031 (1.5) mg/L
- FdUrd Cmax/Dose [2, 10]: 0.20 (1.5) µg/L / mg
- FdUrd t½ [2, 10]: 1.2 (1.7) h
- FdUrd/FdCyd metabolic ratio, AUC0-inf [2, 10]: 0.070 (1.8)
- FdUrd/FdCyd metabolic ratio, Cmax [2, 10]: 0.054 (1.9)
- FdUrd AUC0-inf [2, 11]: 0.047 (1.59) mg/L•h
- FdUrd AUC/Dose [2, 11]: 0.79 (1.6) µg/L•h/mg
- FdUrd Cmax [2, 11]: 0.023 (1.4) mg/L
- FdUrd Cmax/Dose [2, 11]: 0.38 (1.4) µg/L / mg
- FdUrd t½ [2, 11]: 1.0 (1.5) h
- FdUrd/FdCyd metabolic ratio, AUC0-inf [2, 11]: 0.072 (1.4)
- FdUrd/FdCyd metabolic ratio, Cmax [2, 11]: 0.060 (1.8)
- FdUrd AUC0-inf [2, 12]: 0.068 (1.68) mg/L•h
- FdUrd AUC/Dose [2, 12]: 0.85 (1.7) µg/L•h/mg
- FdUrd Cmax [2, 12]: 0.019 (1.6) mg/L
- FdUrd Cmax/Dose [2, 12]: 0.24 (1.6) µg/L / mg
- FdUrd t½ [2, 12]: 1.7 (1.5) h
- FdUrd/FdCyd metabolic ratio, AUC0-inf [2, 12]: 0.056 (1.2)
- FdUrd/FdCyd metabolic ratio, Cmax [2, 12]: 0.033 (1.8)
- FdUrd Cmax/Dose [2, 13]: 0.22 (1.6) µg/L / mg
- FdUrd t½ [2, 13]: 1.3 (1.8) h

Compound: O=c1[nH]cc(F)c(=O)[nH]1 [FU]
- FU urinary excretion over 0-24 hours of day 1 ([1]; All FdCyd doses + THU 3000 mg, N=27, geom. mean (geom. SD)): 0.37 (2.0) % dose
- FU urinary excretion over 0-24 hours of day 1 ([1]; All FdCyd doses + THU 6000 mg, N=9, geom. mean (geom. SD)): 0.27 (2.5) % dose
- FU urinary excretion over 0-24 hours of day 1 ([1]; DL1: FdCyd 30 mg + THU 3000 mg, N=1): 0.20 (-) % dose
- FU urinary excretion over 0-24 hours of day 1 ([1]; DL2: FdCyd 60 mg + THU 3000 mg, N=1): 0.51 (-) % dose
- FU urinary excretion over 0-24 hours of day 1 ([1]; DL4: FdCyd 120 mg + THU 3000 mg, N=1): 0.34 (-) % dose
- FU urinary excretion over 0-24 hours of day 1 ([1]; DL5-9: FdCyd 160 mg + THU 3000 mg, N=24, geom. mean (geom. SD)): 0.38 (2.1) % dose
- FU urinary excretion over 0-24 hours of day 1 ([1]; DL10: FdCyd 60 mg + THU 6000 mg, N=6, geom. mean (geom. SD)): 0.32 (2.5) % dose
- FU urinary excretion over 0-24 hours of day 1 ([1]; DL11: FdCyd 80 mg + THU 6000 mg, N=3, geom. mean (geom. SD)): 0.21 (3.0) % dose
- FU AUC0-inf [2, 14]: 0.019 (1.70) mg/L•h
- FU Cmax [2, 14]: 0.0042 (1.2) mg/L
- FU AUC0-inf [2, 15]: 0.026 (1.54) mg/L•h
- FU Cmax [2, 15]: 0.0055 (1.1) mg/L
- FU AUC0-inf [2, 16]: 0.032 (1.12) mg/L•h
- FU Cmax [2, 16]: 0.0082 (1.4) mg/L
- FU AUC0-inf [2, 17]: 0.052 (1.66) mg/L•h
- FU Cmax [2, 17]: 0.015 (1.6) mg/L
- FU AUC0-inf [2, 18]: 0.033 (1.30) mg/L•h
- FU Cmax [2, 18]: 0.011 (1.3) mg/L
- FU AUC0-inf [2, 19]: 0.044 (1.36) mg/L•h
- FU Cmax [2, 19]: 0.010 (1.1) mg/L
